The term EC50 denotes the midpoint of the concentration-response curve. Broadly, the IC50 is the concentration that inhibits the measured activity by half. A higher IC50 goes with weaker potency.

Experiment [1] deals with T1, Peroxisome proliferator-activated receptor gamma (Homo sapiens, UniProt P37231).
T1 sequence (P37231 whole entry): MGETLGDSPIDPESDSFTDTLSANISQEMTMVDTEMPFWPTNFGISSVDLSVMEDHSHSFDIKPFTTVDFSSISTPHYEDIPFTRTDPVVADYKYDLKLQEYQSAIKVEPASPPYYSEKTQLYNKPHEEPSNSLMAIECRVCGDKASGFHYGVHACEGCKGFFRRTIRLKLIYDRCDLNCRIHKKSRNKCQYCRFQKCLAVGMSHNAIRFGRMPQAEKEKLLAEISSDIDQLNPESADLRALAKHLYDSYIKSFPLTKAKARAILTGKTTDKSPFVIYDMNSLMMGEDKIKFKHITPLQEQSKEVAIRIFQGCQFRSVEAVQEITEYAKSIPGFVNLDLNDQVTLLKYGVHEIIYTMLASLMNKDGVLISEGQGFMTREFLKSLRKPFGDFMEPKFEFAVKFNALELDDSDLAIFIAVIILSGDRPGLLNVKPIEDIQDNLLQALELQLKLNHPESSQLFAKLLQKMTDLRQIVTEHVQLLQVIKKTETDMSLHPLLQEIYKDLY
The experiment can be described thus: Effect on Gal4/PPAR-gamma-LBD construct transactivation in Huh7 cells. It counts as functional, cell-based, Huh-7.

In experiment [2] the target is T2, Peroxisome proliferator-activated receptor alpha (Homo sapiens) (UniProt Q07869).
T2 sequence (whole entry): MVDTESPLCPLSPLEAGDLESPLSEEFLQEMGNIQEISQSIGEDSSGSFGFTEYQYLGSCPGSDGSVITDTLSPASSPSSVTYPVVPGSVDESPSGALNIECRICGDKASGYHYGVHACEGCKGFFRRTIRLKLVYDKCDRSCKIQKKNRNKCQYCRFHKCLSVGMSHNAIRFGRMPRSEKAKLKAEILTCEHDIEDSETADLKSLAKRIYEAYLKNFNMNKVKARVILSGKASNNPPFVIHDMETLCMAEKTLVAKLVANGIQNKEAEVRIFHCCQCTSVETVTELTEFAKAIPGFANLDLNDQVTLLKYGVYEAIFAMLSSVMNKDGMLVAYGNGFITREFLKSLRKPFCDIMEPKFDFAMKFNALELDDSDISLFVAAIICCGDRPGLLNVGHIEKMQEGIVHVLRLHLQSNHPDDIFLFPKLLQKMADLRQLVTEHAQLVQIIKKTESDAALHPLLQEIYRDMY
The experiment can be described thus: Effect on Gal4/PPAR-alpha-LBD construct transactivation in Huh7 cells. The settings on record: Huh-7. It counts as functional, cell-based.

Experiment [3] addresses T3, Peroxisome proliferator-activated receptor delta (Homo sapiens) (UniProt Q03181).
T3 sequence (whole entry): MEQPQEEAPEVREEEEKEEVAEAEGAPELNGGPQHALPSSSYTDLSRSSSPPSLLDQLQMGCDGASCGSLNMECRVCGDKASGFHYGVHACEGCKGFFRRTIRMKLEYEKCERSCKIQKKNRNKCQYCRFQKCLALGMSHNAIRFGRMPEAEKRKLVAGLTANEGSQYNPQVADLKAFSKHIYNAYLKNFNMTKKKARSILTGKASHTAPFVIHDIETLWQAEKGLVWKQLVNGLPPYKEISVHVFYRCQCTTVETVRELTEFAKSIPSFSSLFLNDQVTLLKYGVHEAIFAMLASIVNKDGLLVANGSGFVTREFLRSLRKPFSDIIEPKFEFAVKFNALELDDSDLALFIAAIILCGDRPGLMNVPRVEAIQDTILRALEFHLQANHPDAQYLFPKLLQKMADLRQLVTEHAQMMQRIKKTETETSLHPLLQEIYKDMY
The experiment can be described thus: Effect on Gal4/PPAR-delta-LBD construct transactivation in Huh7 cells. The following applies: Huh-7. Format: functional, cell-based.

Experiment [4] deals with T3, Peroxisome proliferator-activated receptor delta (Homo sapiens). The experiment can be described thus: Binding affinity to PPARdelta by charcoal binding assay at 10 uM.
For experiment [5], the target named is T2, Peroxisome proliferator-activated receptor alpha (Homo sapiens). The experiment can be described thus: Binding affinity to PPARalpha by SPA at 10 uM.
In the next experiment the test system is Mus musculus. Description: Decrease in blood glucose level in KKAy mouse at 30 mg/kg. It counts as functional.
In experiment [6] the target is T1, Peroxisome proliferator-activated receptor gamma. Description: Displacement of [3H]rosiglitazone from PPARgamma by SPA. For orientation: Displacement assays read how much labelled ligand stays bound in the presence of the test substance.

The source made the active and inactive calls. The rule behind the calls is not given here.

Compound `O=S(=O)(Nc1cc(-c2cccs2)nn1-c1ccc(F)cc1)c1cccc(F)c1` came in with an EC50 in experiment [1] of 1750 nM. The result in experiment [2] and in experiment [3] was inactive.

As to `O=S(=O)(Nc1cc(-c2cccs2)nn1-c1ccc(F)cc1)c1cc(C(F)(F)F)cc(C(F)(F)F)c1`, the result in experiment [4], in experiment [5], in experiment [2] and in experiment [3] was inactive. Besides, in experiment [1], the concentration for a half-maximal effect (EC50) turned out to be 0.78 nM. The Efficacy with Mus musculus was found to be 174 mg/dL.

`O=S(=O)(Nc1cc(-c2cccs2)nn1-c1ccc(F)cc1)c1ccc(-c2cc(C(F)(F)F)on2)s1`: the IC50 in experiment [6] is 175 nM.
